Measured values: patent publication US5587390A, “Imidazole derivatives having a II antagonist activity” (Istituto Luso Farmaco D'Italia S.p.A., priority 1992, dated 1996)

Columns and labels:
[1] = target: T1, A II-induced contraction in the rabbit aorta (Oryctolagus cuniculus, UniProt P34976); experiment: inhibition of the A II-induced contraction in the rabbit aorta (in vitro); assay type: cell-based; details: read-out: pA2 (converted)
T1 construct: A II-induced contraction in the rabbit aorta; from tissue; host or cells: rabbit aorta
T1 sequence (P34976 1-359): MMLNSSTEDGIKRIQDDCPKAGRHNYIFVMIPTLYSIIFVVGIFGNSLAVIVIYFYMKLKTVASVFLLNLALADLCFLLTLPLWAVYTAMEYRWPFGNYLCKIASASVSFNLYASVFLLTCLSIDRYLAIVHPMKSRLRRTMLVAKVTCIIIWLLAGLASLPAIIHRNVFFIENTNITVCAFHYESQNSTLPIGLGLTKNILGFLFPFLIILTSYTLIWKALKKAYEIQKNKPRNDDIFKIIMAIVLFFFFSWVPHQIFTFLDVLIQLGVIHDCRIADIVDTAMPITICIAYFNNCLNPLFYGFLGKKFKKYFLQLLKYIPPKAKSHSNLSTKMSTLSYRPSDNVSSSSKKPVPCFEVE
Text: (§1) For the characterization and the evaluation of the effectiveness of the compounds of the invention, in vitro tests (such as the inhibition of the A II-induced contraction in the rabbit aorta and the displacement of ^125 I-Sar^1 -Ile^8 -AT II or [H^3 ] AT II in the rat adrenal cortex) and an in vivo test (the inhibition of the A II-induced pressory response in the ganglio-blocked normotensive rat) were selected.

[2] = system: A II-induced pressory response; experiment: inhibition of the A II-induced pressory response in the ganglio-blocked normotensive rat (in vivo); details: iv
Text: as §1

A II receptor = experiment: receptor binding test: displacement of 125I-Sar1-Ile8-AT II or [H3] AT II in the rat adrenal cortex
Text: The compounds described in the present invention act as antagonists at the A II receptor level.
as §1

Row | Compound | Kb [1] [nM] | ED50 [2] [mg/kg] | Ki (A II receptor) [nM]
1 | CCCCc1nc(-c2ccccc2C(=O)O)cn1Cc1ccc(-c2ccccc2-c2nnn[nH]2)cc1 [Example 10, 2-Butyl-4-(2-carboxyphenyl)-1-[[2'-(tetrazol-5-yl) -biphenyl-4-yl]methyl]-1H-imidazole] | 10 | 0.52 | 
2 | CCCCc1nc(-c2cccc[n+]2[O-])cn1Cc1ccc(-c2ccccc2-c2nn[nH]n2)cc1 [Example 10e, 2-butyl-4-(pyridin-2-yl-N-oxide)-1-[[2'-(tetrazol-5-yl)biphenyl-4-yl]methyl]-1H-imidazole] |  | 0.54 | 6.5
